These compounds were tested on Triple negative breast cancer cell line CAL51 (assay: Cell Titer Glo proliferation assay, CAL51). Conditions: Homo sapiens, CAL-51; CAL51 cell proliferation, Cell Titer Glo; read-out: Act. Level.
Assay type: cell-based
In short: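 CAL51 cells grown in DMEM or RPMI1640 with 10% FBS and 2 mM L-glutamine, cultured overnight, then exposed to serially diluted compound (0.2% DMSO final) for 72 h. Viability read by Cell Titer Glo luminescence.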

| Structure (SMILES) | IC50 [µM] |
| --- | --- |
| CNC(=O)c1ccc(-c2c[nH]c3nc(Nc4ccc(C(=O)NC5COC5)cc4OC)nc(OC4CCC4)c23)cc1F [Example 353, 4-(4-cyclobutoxy-2-(2-methoxy-4-(oxetan-3-ylcartbamoyl)phenylamino)-7H-pyrrolo[2,3-d]pyrimidin-5-yl)-2-fluoro-N-methylbenzamide] | 1 to 10 |
| CNC(=O)c1ccc(Nc2nc(OC3CCCC3)c3c(-c4ccc(C(=O)OC)cc4)c[nH]c3n2)c(OC)c1 [Example 318, methyl 4-(4-(cyclopentyloxy)-2-(2-methoxy-4-(methylcarbamoyl)phenylamino)-7H-pyrrolo[2,3-d]pyrimidin-5-yl)benzoate] | 1 to 10 |
| CNC(=O)c1ccc(Nc2nc(OC3CCOCC3)c3c(-c4cncc(OC)c4)c[nH]c3n2)c(OC)c1 [Example 325, 3-methoxy-4-(5-(5-methoxypyridin-3-yl)-4-(tetrahydro-2H-pyran-4-yloxy)-7H-pyrrolo[2,3-d]pyrimidin-2-ylamino)-N-methylbenzamide] | 0.1 to 0.4 |

— US9795607B2, “Substituted pyrrolopyrimidine compounds, compositions thereof, and methods of treatment therewith” (Signal Pharmaceutical, LLC, priority 2013, dated 2017)
